Values belong to the compound of their own block, whether it stands above or below them.
How the values were obtained:
[1] = tested on: washed platelet samples, platelet aggregation induced by collagen; assay: platelet aggregation test, washed platelets stimulated with collagen (light transmission); type: cell-based; conditions: for collagen-induced platelet aggregation: FIG. 8; for aggregation percentage: FIG. 9
Procedure: FIG. 1 is a diagram illustrating a platelet aggregation test, in accordance with at least one embodiment of the present invention. In FIG. 1, N and C represent the administrations of niclosamide in 0.25% dimethyl sulfoxide (DMSO) or collagen respectively. The platelet aggregation test was performed in accordance with the standard procedure. Four washed platelet samples from the same source were treated with the same volume of niclosamide (0.5 μM, 1 μM, and 2 μM) or a solvent control respectively. Five minutes later, each washed platelet sample was treated with collagen (2 μM) to induce platelet aggregation. FIG. 1 illustrates the light transmission rates of each result. In FIG. 1, the X-axis represents time and the Y-axis represents the transmittance. Note that in FIG. 1, the four platelet aggregation tests performed simultaneously are presented sequentially on the X-axis to render the data readable for one skilled in the art. […] The platelet aggregation test was performed in accordance with the standard procedure. Four washed platelet samples from the same source were treated with the same volume of niclosamide (0.5 μM, 1 μM, and 2 μM) or a solvent control respectively. Five minutes, each washed platelet sample was treated with 2 μM collagen to induce platelet aggregation. The results were detected twenty minutes after the administration of collagen. In FIG. 2, the Y-axis represents the percentage of platelet aggregation, in which the transmittance of platelet-poor plasma is set as 100%. FIG. 8 is a diagram illustrating a platelet aggregation test, in accordance with at least one embodiment of the present invention. Four washed platelet samples from the same source were treated with different treatments at the same time. In FIG. 8, “D” represents the administration of 0.25% DMSO; “C” represents the administration of collagen; “N” represents the administration of niclosamide in 0.25% DMSO; and “S” represents the administration of a STAT-3 inhibitor, STA-21. […] Four washed platelet samples from the same source were treated with different treatments at the same time. In FIG. 9, “D” represents 0.25% DMSO; “STA-21” represents the STAT-3 inhibitor, STA-21; “Niclosamide” represents the niclosamide in 0.25% DMSO; and “Collagen” represents the stimulant, collagen.

[2] = Int J Risk Saf Med 20 (2008) 113-122; cited from earlier work
[3] = tested on: washed platelet samples, platelet aggregation induced by podoplanin; assay: platelet aggregation test, washed platelets stimulated with podoplanin; type: cell-based; conditions: FIG. 6; niclosamide 0.5 μM, 1 μM or 2 μM vs solvent control; 0.4 μM podoplanin; read 20 min after podoplanin
Procedure: FIG. 6 is a bar chart representing the quantitative results of a platelet aggregation test, in accordance with at least one embodiment of the present invention. All procedures in FIG. 6 are the same as the procedures in FIG. 2, except that the collagen used to stimulate platelet aggregation in FIG. 2 is substituted by podoplanin in FIG. 6. In this embodiment, four washed platelet samples from the same source were treated with the same volume of niclosamide (0.5 μM, 1 μM, and 2 μM) or a solvent control respectively. Five minutes, each washed platelet sample was treated with 0.4 μM podoplanin to induce platelet aggregation. The results were detected twenty minutes after the administration of podoplanin. In FIG. 6, the Y-axis represents the percentage of platelet aggregation, in which the transmittance of platelet-poor plasma is used as 100%.

mice [4] = assay: tail bleeding assay; type: in vivo; conditions: FIG. 10; mice 8-10 weeks; 20 mg/kg injected into the abdomen, 1 h before; distal 3-mm tail segment amputated; DMSO control 5 minutes
Procedure: FIG. 10 is diagram illustrating the bleeding time results, in accordance with at least one embodiment of the present invention. Mice at 8-10 weeks of age were used in FIG. 10. Isoflurane was provided based on the body weight to anesthetize the mice one hour after the 20 mg/kg niclosamide or 5% DMSO was injected into the abdomen. Followed the standard procedure of tail bleeding assay, the distal 3-mm segment of the tail was amputated with scalpel after the anesthetization. The tails were than immersed in isotonic saline at 37° C. to observe the bleeding time. […] However, the bleeding time for mice treated with niclosamide was extended to around 15 minutes.

[5] = tested on: washed platelet sample, clot formation induced by collagen; assay: optical microscope images of platelet aggregation test; type: cell-based; conditions: FIG. 4C; 2 μM niclosamide and 2.5 μM collagen
Procedure: FIGS. 4A-4C are optical microscope images of a platelet aggregation test, in accordance with at least one embodiment of the present invention. The platelet aggregation test was performed in accordance with the standard procedure on three washed platelet samples from the same source at the same time. […] In FIG. 4C, the washed platelet sample 10 received 2 μM niclosamide and 2.5 μM collagen; In FIG. 4B, the washed platelet sample 10 received 2.5 μM collagen and 0.25% DMSO with the same volume of the niclosamide in FIG. 4C. Note that 0.25% DMSO is the solvent of the niclosamide in FIG. 4C. […] In FIG. 4B, clots 20 formed as a result of the treatment of collagen and DMSO.

mice [6] = assay: ferric chloride occlusive thrombosis of mesenteric arteries; type: in vivo; conditions: FIG. 11; mice 8-10 weeks; 20 mg/kg injected into the abdomen; 7.5% FeCl3 on mesenteric arteries for 2 min; DMSO control 5 minutes
Procedure: FIG. 11 is diagram illustrating the occlusion time, in accordance with at least one embodiment of the present invention. Mice at 8-10 weeks of age were used in FIG. 11. About 20 nM 3,3′-Dihexyloxacarbocyanine iodide (DioC6), a fluorescent dye used for the staining of platelets, was injected into the orbital vein after 20 mg/kg niclosamide or 5% DMSO was injected into the abdomen. An hour later, isoflurane was provided based on the body weight to anesthetize the mice. Followed the standard procedure for studying occlusive thrombosis, Whatman #1 filter papers soaked with 7.5% ferric chloride (FeCl3) were attached to the mesenteric arteries for two minutes. The mesenteric arteries were then immersed in isotonic saline and placed under a fluorescence microscope (Macrofluo, objective 5.0/0.5 NA, Leica Micro-systems) to record the occlusion time and cessation of blood flow.

pSYK and PLCγ2 = assay: western blot of proteins in the signal transduction pathway of platelet aggregation; type: cell-based; conditions: FIG. 3; 2 μM niclosamide pretreatment, 2.5 μM collagen
Procedure: FIG. 3 is a western blot image showing proteins in the signal transduction pathway of platelet aggregation, in accordance with at least one embodiment of the present invention. In FIG. 3, pSYK and PLCγ2 in the signal transduction pathway are suppressed in the washed platelet sample received 2 μM niclosamide, even that is treated with 2.5 μM collagen to induce platelet aggregation. In contrast, the pSYK and PLCγ2 in the washed platelet sample received a solvent control (0.25% DMSO) pretreatment are successfully activated after the 2.5 μM collagen treatment.

Structure (SMILES): C[C@@H]1CC(=O)c2c(ccc3c2C(=O)c2cccc(O)c2C3=O)C1 [STA-21, ochromycinone]
- collagen-induced platelet aggregation ([1]; pretreated with 1.25 μM STA-21, 2 μM collagen): suppressed
- aggregation percentage ([1]; 1.25 μM STA-21 and 2 μM collagen (DMSO control exceeds 60%)): less than 40%

- IC50 relative to STA-21 ([1]; FIGS. 8 and 9, collagen-induced platelet aggregation): lower IC50 compared to STA-21
Structure (SMILES): O=C(Nc1ccc([N+](=O)[O-])cc1Cl)c1cc(Cl)ccc1O [niclosamide, 5-chloro-N-(2-chloro-4-nitrophenyl)-2-hydroxybenzamide]
- safety profile under current conditions of use [2]: there is no information to suggest an unfavorable safety profile of the drug under current conditions of use
- percentage of platelet aggregation [3]: significantly reduced
- platelet aggregation induced by collagen (transmittance over time) ([1]; FIG. 1, niclosamide 0.5 μM, 1 μM, 2 μM given 5 min before collagen 2 μM): suppresses the platelet aggregation induced by collagen in a dose-dependent manner
- percentage of platelet aggregation ([1]; FIG. 2, niclosamide 0.5 μM, 1 μM or 2 μM vs solvent control, 2 μM collagen, read 20 min after collagen, p<0.01): significantly reduced
- collagen-induced platelet aggregation ([1]; pretreated with 0.25 μM niclosamide, 2 μM collagen): suppressed
- aggregation percentage ([1]; 0.25 μM niclosamide and 2 μM collagen (DMSO control exceeds 60%)): less than 30%
- bleeding time (mice [4]): around 15 minutes
- platelet aggregation / clots under 20× optical microscope [5]: No platelet aggregation is observed
- occlusion time (mice [6]): around 25 minutes
- pSYK and PLCγ2 in the signal transduction pathway (pSYK and PLCγ2): suppressed

From patent publication US11260034B2, “Method of using niclosamide derivatives” (CHANG GUNG UNIVERSITY, priority 2016, dated 2022)
